Starred links: 1 amine or outer side, 2 acyl side, 3 side chain; linkers in the order of their positions; H or OH if unused. Non-standard residues stand in square brackets, D forms with d. Residues, ends and D or L forms follow the SMILES beside them. *: point of attachment. Dolaproine = CO[C@@H]([C@@H]1CCCN1)[C@@H](C)C(=O)O; Dil = CC[C@H](C)[C@H](NC)[C@@H](CC(=O)O)OC; PABC = O=C(OCc1ccc(N[*:1])cc1)[*:2]; X1 = O=C(CCCC(=O)*)ON1C(=O)CCC1=O; X2 = C[C@@H](N*)[C@@H](O)c1ccccc1; Cit = NC(=O)NCCC[C@H](N)C(=O)O; NMeV = CN[C@H](C(=O)O)C(C)C
What was measured:
Format in all cases: in vivo, Mus musculus
CTG-0160 = assay: Champions TumorGraft NSCLC PDX efficacy, model CTG-0160
Procedure: (§1) Mice were implanted subcutaneously into the left flank with tumor fragments from one of the various models. After tumors grew to an average of 150-300 mm^3, mice were treated by IV administration Q7Dx4 (n=2) with vehicle or 3 mg/kg of BT5528. Effects on tumor growth were evaluated by measuring percent tumor growth inhibition (% TGI), and the number of complete responders (CR), partial responders (PR), and tumor-free survivors (TFS). Tolerability was assessed by body weight loss, lethality, and clinical signs of adverse treatment-related side effects. Tumor volumes and body weights were measured twice a week.
(§2) Dosing solutions of BT5528 […] were pre-formulated. These dosing solutions were stored at −80° C. in the dark. On each day of dosing, a frozen aliquot of each test agent was thawed, stored at 2-8° C. and used for dosing.
(§3) The animals used in this study are described below: • Species: Mus musculus • Strain: Athymic Nude-Foxn1^nu (immune-compromised) • Source: Envigo (Indianapolis, Ind., USA) • Number of animals per group: 2 • Age and sex: At least 6-8 weeks of age at start of dosing, female • Weight: At least 18 grams at start of dosing • Acclimation period: 3 days
(§4) Stock mice were implanted with tumor cells from Champions TumorGraft® models CTG-0160, CTG-0170, CTG-0178, CTG-0192, CTG-0363, CTG-0808, CTG-0838, CTG-0848, CTG-1212, CTG-1502, CTG-1535, CTG-2011, CTG-2393, CTG-2539 or CTG-2540. After the tumors reached 1000-1500 mm^3, they were harvested and the tumor fragments (approximately 5×5×5 mm^3) were implanted SC in the left flank of the female study mice. Each animal was implanted with a specific passage lot and documented. Tumor growth was monitored twice a week using digital calipers and the tumor volume (TV) was calculated using the formula (0.52×[length×width^2]). When the TV reached an average volume of 150-300 mm^3, animals were matched by tumor size and assigned into Vehicle Control and treatment groups (n=2/group) and dosing was initiated on Day 0. After the initiation of dosing on Day 0, animals were weighed twice per week using a digital scale and TV was measured twice per week and also on the final day of study. The study was completed when the mean tumor volume of Vehicle Control reached 1500 mm^3 or up to Day 60, whichever occurred first.
(§5) Beginning on Day 0, animals were observed daily and weighed twice weekly using a digital scale; data including individual and mean gram weights, mean percent weight change versus Day 0 (% vD0) were recorded for each group and % vD0 plotted at study completion. […] Treatment resulting in a mean % vD0>20% and/or >10% mortality was considered above the maximum tolerated dose. Maximum mean % vD0 (weight nadir) for each treatment group was reported at study completion.
(§6) Inhibition of tumor growth was determined by calculating the percent TGI (100%×[1−(final MTV−initial MTV of a treated group)/(final MTV−initial MTV of the control group)]). Treatment started on Day 0.
(§7) Additional endpoints used to evaluate efficacy were: the number of complete responders (CR), partial responders (PR), and tumor-free survivors (TFS). PRs were considered exclusive of CRs, as were TFS.
(§8) Statistical analyses of anti-tumor efficacy were performed using one-way ANOVA followed by Dunnett's multiple comparisons test (GraphPad Prism version 8.2.0). Significant p-values=<0.05.
Animals were dosed according to the schedule on Table 7-1. The Vehicle Control group reached endpoint of average tumor volume >1500 mm^3 on Day 21 and was removed from the study. The study was terminated on Day 28. Therefore, the tumor volumes on Day 21 were used for analysis of anti-tumor activity.

CTG-0848 = assay: Champions TumorGraft NSCLC PDX efficacy, model CTG-0848
Procedure: as §1, §2, §3, §4, §5, §6, §7, §8
(§9) Animals were dosed according to the schedule on Table 7-1. The study was terminated on Day 27.

CTG-1535 = assay: Champions TumorGraft NSCLC PDX efficacy, model CTG-1535
Procedure: as §1, with “After tumors grew to an average of 150-300 mm^3, mice were treated by IV administration Q7Dx4 (n=2) with vehicle or 3 mg/kg of BT5528.” left out
as §2, §3, §4, §5, §6, §7, §8
Animals were dosed according to the schedule on Table 7-1. The study was terminated on Day 35.

CTG-1212 = assay: Champions TumorGraft NSCLC PDX efficacy, model CTG-1212
Procedure: as §1, §2, §3, §4, §5, §6, §7, §8, §9

[1] = CTG-0160, 3 mg/kg IV Q7Dx4, Day 0-28
[2] = CTG-0848, 3 mg/kg IV Q7Dx4, Day 0-27
[3] = CTG-1535, 3 mg/kg IV Q7Dx5, Day 0-35
[4] = CTG-1212, 3 mg/kg IV Q7Dx4, Day 0-27

For `CC[C@H](C)[C@@H]([C@@H](CC(=O)N1CCC[C@H]1[C@H](OC)[C@@H](C)C(=O)N[C@H](C)[C@@H](O)c1ccccc1)OC)N(C)C(=O)[C@@H](NC(=O)[C@H](C(C)C)N(C)C(=O)OCc1ccc(NC(=O)[C@H](CCCNC(N)=O)NC(=O)[C@@H](NC(=O)CCCC(=O)ON2C(=O)CCC2=O)C(C)C)cc1)C(C)C` [BT5528] (X1-V[Cit][PABC][NMeV]V[Dil][Dolaproine]-X2), the “MTV (mean tumor volume)” value (CTG-0160; 3 mg/kg IV Q7Dx4, Day 21) was 400±187 mm^3, the TGI (CTG-0160; 3 mg/kg IV Q7Dx4, Day 21) was 87% and the “# CR (complete responders)” value (CTG-0160; [1]) was 0/0/0. For the same compound, the “# PR (partial responders)” value (CTG-0160; [1]) was 0/0/0, the “# TFS (tumor-free survivors)” value (CTG-0160; [1]) was 0/0/0 and the “% TGI” value (CTG-0160; CTG-0160, 3 mg/kg IV Q7Dx4, Day 21) was 87%. For the same compound, the “Day 21 Tumor Volume Mean TV ± SEM” value (CTG-0160; CTG-0160, BT5528 3 mg/kg IV Q7Dx4, Day 21, n=2) was 400 ± 187 mm^3, the “MTV (mean tumor volume)” value (CTG-0848; 3 mg/kg Q7Dx4, Day 27) was 512±113 mm^3 and the TGI (CTG-0848; 3 mg/kg Q7Dx4, Day 27) was 56%. For the same compound, the “# CR (complete responders)” value (CTG-0848; [2]) was 0/0/0, the “# PR (partial responders)” value (CTG-0848; [2]) was 0/0/0 and the “# TFS (tumor-free survivors)” value (CTG-0848; [2]) was 0/0/0. For the same compound, the “% TGI” value (CTG-0848; CTG-0848, 3 mg/kg IV Q7Dx4, Day 27) was 56%, the “Day 27 Tumor Volume Mean TV ± SEM” value (CTG-0848; CTG-0848, BT5528 3 mg/kg IV Q7Dx4, Day 27, n=2) was 512 ± 113 mm^3 and the “MTV (mean tumor volume)” value (CTG-1535; 3 mg/kg IV Q7Dx5, Day 35) was 307±91 mm^3. The TGI (CTG-1535; 3 mg/kg IV Q7Dx5, Day 35) was 85%, the “# CR (complete responders)” value (CTG-1535; [3]) was 0/0/0 and the “# PR (partial responders)” value (CTG-1535; [3]) was 0/0/0. For the same compound, the “# TFS (tumor-free survivors)” value (CTG-1535; [3]) was 0/0/0, the “% TGI” value (CTG-1535; CTG-1535, 3 mg/kg IV Q7Dx5, Day 35) was 85% and the “Day 35 Tumor Volume Mean TV ± SEM” value (CTG-1535; CTG-1535, BT5528 3 mg/kg IV Q7Dx5, Day 35, n=2) was 307 ± 91 mm^3. For the same compound, the “mean body weight loss” value (CTG-1212; 3 mg/kg IV Q7Dx4) was “minor mean body weight losses”, the “MTV (mean tumor volume)” value (CTG-1212; 3 mg/kg IV Q7Dx4, Day 27) was 128±53 mm^3 and the TGI (CTG-1212; 3 mg/kg IV Q7Dx4, Day 27) was 112%. For the same compound, the “# CR (complete responders)” value (CTG-1212; [4]) was 0/0/0, the “# PR (partial responders)” value (CTG-1212; [4]) was 0/0/0 and the “# TFS (tumor-free survivors)” value (CTG-1212; [4]) was 0/0/0. For the same compound, the “% TGI” value (CTG-1212; CTG-1212, 3 mg/kg IV Q7Dx4, Day 27) was 112% and the “Day 27 Tumor Volume Mean TV ± SEM” value (CTG-1212; CTG-1212, BT5528 3 mg/kg IV Q7Dx4, Day 27, n=2) was 128 ± 53 mm^3.

— patent publication US20220184222A1, “BICYCLE TOXIN CONJUGATES AND USES THEREOF” (BicycleTx Limited, priority 2019, published 2022)
